Structures can show the parent of a compound that is named as a salt. Where two headings read alike, the source gives them in different places.

The source of these data is patent US5654179A, “Nucleic acid preparation methods” (HRI Research, Inc., priority 1994, dated 1997).

Data set [1] relates to Taq polymerase. The format is biochemical. More on the design: key to Effect of cofactors on serum albumin: BSA / Effect of cofactors on transferrin: Bovine Transferrin: The presence of product bands ("+") indicated that the cofactor was, in conjunction with transferrin or serum albumin, able to overcome inhibition. On the procedure: (§1) Generally, PCR was carried out using 175-200 μM dNTPS (deoxyribonucleoside 5'-triphosphates) and 0.5 to 1.0 μM primers. Five units/100 μl of Taq polymerase were used. PCR reactions were overlaid with 30-100 μl light mineral oil. A typical PCR cycle for HIV amplification using a Perkin-Elmer Cetus DNA Thermal Cycler (Part No. N8010150) was: denaturation at 95° C. for 30 seconds; annealing at 55° C. for 30 seconds; and extension at 72° C. for 1 minute. PCR cycles were normally carried out in this manner for 35 cycles followed by 7 minutes at 72° C.
In some instances below, amplification of human histocompatibility (HLA) Class II genes was performed using primer pair GH26 (SEQ ID NO:2) and GH27 (SEQ ID NO:3) and human placental DNA to produce a 242-mer product (SEQ ID NO: 4). These primers and other primers are described in PCR Protocols: A Guide To Methods and Applications, Innis, M. A. et al. eds., pp. 261-271 (1990)).
Whole blood was prepared according to Mode III (see FIG. 1). Whole blood samples (100 μl) were lysed with protease K (0.5 mg/ml, 55° C. for 1 hour). The enzyme was inactivated by heating (95°-100°C., 10 minutes). Four sets of reactions were then set up involving the addition of interfering reagent to the protease lysate: 1) transferrin with 10 mM sodium bicarbonate; 2) transferrin with 20 mM sodium bicarbonate; 3) serum albumin with 10 mM sodium bicarbonate; and 4) serum albumin with no cofactor. These reaction were performed at room temperature for thirty minutes using a concentration range for transferrin and serum albumin (10, 25, 50, 75, 100, 150, 200 and 250 μg per 20 μl PCR rxn). PCR was then set up using the primer pair GH26/GH27 to produce a 242-mer product (see above). Two standard control reactions were run in separate tubes: i) a no nucleic acid target control; and 2) a positive control (human placental DNA). Four additional control lanes were run: 1) no inhibitor treatment (two lanes); 2) 10 mM sodium bicarbonate only (one lane); and 3) 50 μg transferrin only (one lane); and 4) transferrin with 10 mM sodium bicarbonate (two lanes). PCR was carried out for 35 cycles. The PCR products were thereafter electrophoresed (agarose) and visualized with ethidium bromide staining. The two above-named control reactions were electrophoresed in lanes 9 and 10 of FIG. 16A, respectively, as well as lanes 17 and 18 of FIG. 16B, respectively. In FIG. 16C, the positive control is in lane 1 and the negative control is in lane 2.
Whole blood was prepared according to Mode III (see FIG. 1). Whole blood samples (20 μl) were lysed with protease K (0.5 mg/ml, 55° C. for 1 hour). The enzyme was inactivated by heating (95°-100° C., 10 minutes). Reactions were then set up involving the addition of bovine transferrin or serum albumin with various cofactors, including bicarbonate ion, azide ion, thiocyanate ion, cyanate ion, oxalate ion, malonate ion, glycinate ion, and thioglycolate ion. These reaction were performed at room temperature for thirty minutes. PCR was then set up using the using primer pair GH26/GH27 to produce a 242-mer product (see above). PCR was carried out for 35 cycles. The PCR products were thereafter electrophoresed (agarose) and visualized with ethidium bromide staining.

Data set [2] has as its system Taq polymerase. To be noted: cited from earlier work; for inhibitory concentration in PCR: final concentration.
Data set [3] relates to Taq polymerase. Nature of the data set: PCR inhibition, SK38/39 system, 115-mer product on ethidium bromide gel or autoradiograph. The format is biochemical. On the procedure: as §1
In other cases, amplification of HIV sequences was performed using primer pair SK-38 (SEQ ID NO:5) and SK-39 (SEQ ID NO:6) and 115-mer (SEQ ID NO:7) as target to produce a 115-mer product.
Where agarose gel electrophoresis was used, the PCR products were fractionated by electrophoresis through a 3% Nusieve/1% agarose gel in TBE buffer. Electrophoresis was typically carried out in a constant voltage of 8-10 V/cm. Following agarose gel electrophoresis, individual bands were, in most cases, visualized by ethidium bromide staining. This involved staining the agarose gel with 1 μg/ml ethidium bromide in TBE for 30 minutes followed by destaining the agarose gel with TBE for 30 minutes.
The chemical reaction was performed as follows. Two aliquots (30 mg/aliquot) of sodium borohydride (NaBH4) were added at ten minute intervals to 1 ml of 200 μM hematin (Sigma) in 1M Tris (pH 8.0) under argon in the dark. The pH was adjusted to 6.0 between additions. At the end of the reaction (20 minutes) the pH was adjusted to 1.0 and then neutralized to pH 7.0. Six aliquots (5 μl) of the product of the reaction corresponding to different amounts of reacted hematin (37.5 μM, 7.5 μM, 1.5 μM, 0.3 μM, 0.06 μM, 0.012 μM) were added to standard (20 μl) PCR reactions in different tubes using the SK38/39 system (see above). Three standard control reactions were run in separate tubes: i) a no nucleic acid target control; ii) a no primer control; and iii) a positive control (no hematin). In addition, unreacted hematin was added to four different tubes in different amounts (50 μM, 5 μM, 0.5 μM, and 0.05 μM). PCR was carried out for 30 cycles. The PCR products were thereafter electrophoresed (agarose) and visualized with ethidium bromide staining (FIG. 2A, lanes 1-13). The three above-named control reactions were electrophoresed in lanes 1, 2 and 3, respectively. […] The unreacted hematin tubes (lanes 4-7) show no product until hematin is present at a very low concentration (0.05 μM, lane 7), at which point product is evident. […] Indeed, product is evident where 1.5 μM reacted hematin or less was present. […] A score (i.e., % maximum intensity of a positive control) was given to each band. An OD unit of 1.0 corresponds to 100% of maximum intensity. After examination of a plot of the estimated OD units to the concentration of hematin (expressed in the log scale) in these PCR reactions, it is clear that approximately a thirty-fold concentration difference was achieved (reacted to unreacted).
The photochemical reaction was performed as follows. Stock biliverdin (Sigma, 5 mM) was diluted in solution (50 mM Tris pH 7.8) to a final concentration of 200 μM. Two aliquots (300 μl) were then made. One aliquot was left unreacted. The other aliquot was exposed to ultraviolet radiation from an HRI-100 for 16 hours using the industry standard, F8T5BL hot cathode dual bipin lamps. Thereafter, both the unirradiated and irradiated materials were added (5 μl) to standard (20 μl) PCR reactions in different tubes using the SK38/39 system (see above) and 10^9 copies of 115-mer target. Three standard control reactions were run in separate tubes: i) a no nucleic acid target control; ii) a positive control (no biliverdin); and iii) a no Taq control. PCR was carried out for thirty (30) cycles. The PCR products were thereafter electrophoresed (agarose) and visualized with ethidium bromide staining (FIG. 3A, lanes 1-5). […]

Data set [4] can be described thus: Spectroscopic analysis of photochemical treatment (300-700 nm scan). The format is physicochemical. How it is done: In this case 0.5 ml of untreated biliverdin in solution (diluted in 50 mM Tris pH 7.8) to a final concentration corresponding to Apeak =0.7) was scanned using a Beckman Spectrophotometer Model DU-50 between 300 and 700 nm. Photochemically treated (1.5 hours and 16 hours of irradiation) biliverdin was similarly diluted and scanned. […] This corresponds to lane 5 in FIG. 3A where no PCR inhibition was observed.
In this case 0.5 ml of untreated bilirubin in solution (diluted in 50 mM Tris, pH 7.8 to a final concentration corresponding to Apeak =0.8) was scanned using a Beckman Spectrophotometer Model DU-50 between 300 and 700 nm. Photochemically treated (20 minutes, 60 minutes and 2.5 hours of irradiation) bilirubin was similarly diluted and scanned. […] With just 20 minutes of irradiation, this peak is reduced; with just 60 minutes of irradiation, this peak is weak; with 2.5 hours, it is eliminated. The 2.5 hour treatment corresponds to lane 8 in FIG. 4A where no PCR inhibition was observed.

In data set [5] the test system is DNA ligase from mouse erythroleukemia (MEL) cells. The settings on record: incubation with hemoglobin; cited from earlier work.
The mark [6] stands for this setting: hematin or protoporphyrin only, 500 μM stock.

Turning to `NCC(=O)O` [Sodium Glycinate (NaO2 CH2 NH2), Sodium Glycinate], in the data set on Taq polymerase [1], the “Effect of cofactors on serum albumin: BSA” value (“Effect of cofactors … BSA” below) is reported as “+” and the “Effect of cofactors on transferrin: Bovine Transferrin” value (“Effect of cofactors on transferrin” below) was “+”.

For the molecule `O=C(O)C(=O)O` [Sodium Oxalate (NaO2 CCO2 Na), Sodium Oxalate], the “Effect of cofactors … BSA” value with Taq polymerase [1] is on record as “+”.

On to `N#CS` [Sodium Thiocyanate (NaSCN), Sodium Thiocyanate], for which, in the data set with Taq polymerase [1], the “Effect of cofactors … BSA” value is “+” and the “Effect of cofactors on transferrin” value was “+”.

Regarding `O=C(O)O` [Sodium Bicarbonate (NaHCO3), Sodium Bicarbonate], in the data set with Taq polymerase [1], the “Effect of cofactors … BSA” value is reported as “+” and the “Effect of cofactors on transferrin” value is listed as “+”.

For the molecule `C=CC1=C(C)c2cc3[n-]c(cc4[n-]c(cc5nc(cc1n2)C(C)=C5C=C)c(C)c4CCC(=O)O)c(CCC(=O)O)c3C.[Fe+2]` [heme], the “inhibitory concentration in PCR” value with Taq polymerase [2] is 0.8 µM.

For the molecule `C=CC1=C(C)c2cc3[n-]c(cc4[n-]c(cc5nc(cc1n2)C(C)=C5C=C)c(C)c4CCC(=O)O)c(CCC(=O)O)c3C.O.[Fe+2]` [hematin], the PCR inhibition entry in the data set on Taq polymerase [3] (setting [6]) is listed as “completely inhibited”. For the same molecule, in the data set with Taq polymerase [3] (sodium borohydride reduction, visual band intensity), the “concentration difference (reacted to unreacted) in PCR inhibition” value is given as “thirty”. In addition, the “concentration at which PCR product is evident” value with Taq polymerase [3] (unreacted hematin, no product at 50, 5, 0.5 μM) was 0.05 µM. Besides, in the data set with Taq polymerase [2], the “inhibition of PCR / Taq polymerase” value is given as “potent inhibitors of Taq polymerase” and the “inhibitory concentration in PCR” value is at least 0.8 µM.

On to serum albumin, for which the results for the PCR product entry with Taq polymerase [1] (serum albumin 25 μg with cofactor (lane 9)), in the data set on Taq polymerase [1] (serum albumin 10 to 250 μg without cofactor) and with Taq polymerase [1] (serum albumin higher concentrations with cofactor (lanes 10-16)) were “weak product band”, “No product is visible” and “strong product bands”, respectively.

`O=C(O)CC(=O)O` [Sodium Malonate (NaO2 CCH2 CO2 Na), Sodium Malonate]: the “Effect of cofactors … BSA” value with Taq polymerase [1] is “+”.

Consider `O=C(O)CS` [Sodium Thioglycolate (NaO2 CCH2 SH), Sodium Thioglycolate], for which, in the data set with Taq polymerase [1], the “Effect of cofactors … BSA” value is reported as “+” and the “Effect of cofactors on transferrin” value was “+”.

As to `[Fe+2]` [Fe++], in the data set on Taq polymerase [2], the “inhibition of PCR / Taq polymerase” value was “inhibit PCR”.

As to `C=CC1=C(C)/C(=C/c2[nH]c(Cc3[nH]c(/C=C4\NC(=O)C(C)=C4C=C)c(C)c3CCC(=O)O)c(CCC(=O)O)c2C)NC1=O` [bilirubin], the PCR product result in the data set with Taq polymerase [3] (400 μM bilirubin, 2.5 hrs irradiation) is “product is visible”; with Taq polymerase [3] (800 μM bilirubin, 3.5 hrs irradiation) it was “product is visible”; with Taq polymerase [3] (2 mM bilirubin, 4 hrs irradiation), “Product is not visible”. The PCR inhibition result with Taq polymerase [3] (unreacted bilirubin, 400 μM, 800 μM and 2 mM) is recorded as “completely inhibited”. Moreover, the results for the “absorbance peak at approximately 450 nm after irradiation” value in data set [4] (20 minutes of irradiation), in data set [4] (60 minutes of irradiation) and in data set [4] (2.5 hours of irradiation) were “reduced”, “weak” and “eliminated”, respectively.

`C=CC1=C(C)c2cc3[nH]c(cc4nc(cc5[nH]c(cc1n2)c(C)c5CCC(=O)O)C(CCC(=O)O)=C4C)c(C)c3C=C` [protoporphyrin]: the PCR inhibition entry with Taq polymerase [3] (setting [6]) is “completely inhibited”. The “inhibitory concentration in PCR” value in the data set with Taq polymerase [2] was 20 µM.

Regarding `[Fe+3]` [Fe^+++], the “inhibition of PCR / Taq polymerase” value with Taq polymerase [2] is “inhibit PCR”.

hemoglobin: the “inhibition of DNA ligase from MEL cells” value in data set [5] is recorded as “not inhibitory”.

With `N#CO` [Sodium Cyanate (NaOCN), Sodium Cyanate], in the data set with Taq polymerase [1], the “Effect of cofactors … BSA” value is recorded as “+” and the “Effect of cofactors on transferrin” value is “+”.

`C=CC1=C(C)/C(=C/C2=NC(=C\c3[nH]c(/C=C4\NC(=O)C(C)=C4C=C)c(C)c3CCC(=O)O)/C(CCC(=O)O)=C2C)NC1=O` [biliverdin]: the PCR product entry with Taq polymerase [3] (biliverdin photochemically treated 16 hrs) is recorded as “product is visible”. The PCR inhibition entry in the data set with Taq polymerase [3] (biliverdin unirradiated, 5 μl of 200 μM in 20 μl PCR) is listed as “completely inhibited”. The results for the “absorbance peak at approximately 450 nm after irradiation” value in data set [4] (1.5 hours of irradiation) and in data set [4] (16 hours of irradiation) were “very weak” and “eliminated completely”, respectively.

As for `O=C(O)O` [cofactor, sodium bicarbonate], in the data set on Taq polymerase [1], the PCR product entry is “No product is visible”.

Regarding `[N-]=[N+]=[N-]` [Sodium Azide (NaN3), Sodium Azide], in the data set with Taq polymerase [1] (cofactor with BSA), the “Effect of cofactors … BSA” value is “+”.
